Data taken from the supplement of paper PMC10307832.

compound: C1CCC(CC1)N(CCNCCC2=C3C(=C(C=C2)O)NC(=O)CO3)C(=O)CCNCCC4=CC(=C(C=C4)Cl)Cl [AZ505] + Cc1nc(NC(=O)N2CCC[C@H]2C(N)=O)sc1-c1ccnc(C(C)(C)C(F)(F)F)c1 [Alpelisib] (partner 2 µM); assay: relative viability (nuclei count vs DMSO), 5 days (fraction); higher = more cells survive; settings: first compound 0.08 µM
Summary of the method: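 Values are medians from duplicate plates. Each reflects relative viability, defined as the nuclei count of treated wells over that of vehicle wells. Lung cancer cell lines in 1536-well plates were pin-tool dosed one day after seeding with one drug alone or with a fixed anchor-drug dose plus five library-drug doses (not always all listed) in √10 steps, then fixed, stained and imaged at 4× after 5 days.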

Compared with NCI-H727, EBC-1 is higher in relative viability: 0.535 for the first, 0.815 for the second.

Compared with NCI-H1703, NCI-H1993 is higher in relative viability: 0.292 for the first, 0.544 for the second.

Going from SK-LU-1 to NCI-H838, the relative viability rises from 0.499 to 0.988.

First: LCLC-103H
Second: NCI-H520
The relative viability of the first is lower: 0.853 for the first, 0.92 for the second.

First: NCI-H2126
Second: EMC-BAC-2
The relative viability of the first is higher: 0.729 for the first, 0.718 for the second.

First: NCI-H2085
Second: Calu-6
The relative viability of the first is lower: 0.825 for the first, 0.842 for the second.

First: HCC-366
Second: NCI-H1666
The relative viability of the first is lower: 0.306 for the first, 0.899 for the second.

Compared with NCI-H596, LK-2 is higher in relative viability: 0.483 for the first, 0.968 for the second.

First: NCI-H2087
Second: SK-MES-1
The relative viability of the first is lower: 0.863 for the first, 0.881 for the second.

Going from H3255 to COR-L23, the relative viability falls from 0.62 to 0.532.

Going from COR-L 105 to IA-LM, the relative viability falls from 0.897 to 0.793.

Going from LOU-NH91 to NCI-H2170, the relative viability rises from 0.622 to 0.804.

First: NCI-H2405
Second: HOP-62
The relative viability of the first is lower: 0.4 for the first, 0.94 for the second.

First: HCC-44
Second: A549
The relative viability of the first is lower: 0.734 for the first, 0.796 for the second.

Compared with LU99A, NCI-H1299 is higher in relative viability: 0.55 for the first, 0.986 for the second.

Going from NCI-H1563 to ABC-1, the relative viability falls from 0.932 to 0.881.

same assay, conditions: first compound 0.253 µM

Compared with NCI-H727, EBC-1 is higher in relative viability: 0.621 for the first, 0.806 for the second.

Compared with NCI-H1703, NCI-H1993 is higher in relative viability: 0.372 for the first, 0.729 for the second.

Going from SK-LU-1 to NCI-H838, the relative viability rises from 0.846 to 0.966.

Compared with LCLC-103H, NCI-H520 is higher in relative viability: 0.818 for the first, 0.829 for the second.

Going from NCI-H2126 to EMC-BAC-2, the relative viability falls from 0.781 to 0.759.

Going from NCI-H2085 to Calu-6, the relative viability rises from 0.905 to 1.07.

Going from HCC-366 to NCI-H1666, the relative viability rises from 0.379 to 1.01.

Going from NCI-H596 to LK-2, the relative viability rises from 0.453 to 0.923.

First: NCI-H2087
Second: SK-MES-1
The relative viability of the first is higher: 1.03 for the first, 0.954 for the second.

Compared with H3255, COR-L23 is lower in relative viability: 0.8 for the first, 0.646 for the second.

Going from COR-L 105 to IA-LM, the relative viability falls from 1.06 to 1.05.

Compared with LOU-NH91, NCI-H2170 is higher in relative viability: 0.636 for the first, 0.914 for the second.

Compared with NCI-H2405, HOP-62 is higher in relative viability: 0.426 for the first, 1.17 for the second.

Going from HCC-44 to A549, the relative viability falls from 0.751 to 0.666.

Going from LU99A to HCC-78, the relative viability falls from 0.519 to 0.515.

Compared with NCI-H1299, NCI-H1563 is lower in relative viability: 1.06 for the first, 0.911 for the second.

Work on ABC-1 yielded a relative viability of 1.01.

same assay, conditions: first compound 0.8 µM

Compared with NCI-H727, EBC-1 is higher in relative viability: 0.505 for the first, 0.893 for the second.

First: NCI-H1703
Second: NCI-H1993
The relative viability of the first is lower: 0.414 for the first, 0.753 for the second.

Going from SK-LU-1 to NCI-H838, the relative viability rises from 0.537 to 0.943.

Compared with LCLC-103H, NCI-H520 is lower in relative viability: 0.977 for the first, 0.862 for the second.

Going from NCI-H2126 to EMC-BAC-2, the relative viability falls from 0.771 to 0.696.

First: NCI-H2085
Second: Calu-6
The relative viability of the first is lower: 0.884 for the first, 0.934 for the second.

Going from HCC-366 to NCI-H1666, the relative viability rises from 0.326 to 0.867.

Compared with NCI-H596, LK-2 is higher in relative viability: 0.49 for the first, 1.29 for the second.

First: NCI-H2087
Second: SK-MES-1
The relative viability of the first is higher: 1.01 for the first, 0.922 for the second.

Compared with H3255, COR-L23 is lower in relative viability: 0.715 for the first, 0.463 for the second.

Compared with COR-L 105, IA-LM is lower in relative viability: 1.02 for the first, 0.925 for the second.

First: LOU-NH91
Second: NCI-H2170
The relative viability of the first is lower: 0.611 for the first, 0.719 for the second.

First: NCI-H2405
Second: HOP-62
The relative viability of the first is lower: 0.503 for the first, 0.889 for the second.

Going from HCC-44 to A549, the relative viability rises from 0.75 to 0.872.

Going from LU99A to HCC-78, the relative viability falls from 0.618 to 0.306.

Compared with NCI-H1299, NCI-H1563 is lower in relative viability: 1.01 for the first, 0.873 for the second.

ABC-1 showed a relative viability of 1.1.

same assay, conditions: first compound 2.53 µM

Going from NCI-H727 to EBC-1, the relative viability rises from 0.598 to 0.857.

Going from NCI-H1703 to NCI-H1993, the relative viability rises from 0.341 to 0.741.

First: SK-LU-1
Second: NCI-H838
The relative viability of the first is lower: 0.69 for the first, 0.928 for the second.

Going from LCLC-103H to NCI-H520, the relative viability falls from 0.848 to 0.84.

Going from NCI-H2126 to EMC-BAC-2, the relative viability rises from 0.746 to 0.761.

Going from NCI-H2085 to Calu-6, the relative viability falls from 1.01 to 0.937.

Compared with HCC-366, NCI-H1666 is higher in relative viability: 0.411 for the first, 0.999 for the second.

Going from NCI-H596 to LK-2, the relative viability rises from 0.626 to 1.13.

Going from NCI-H2087 to SK-MES-1, the relative viability falls from 1.14 to 0.873.

Compared with H3255, COR-L23 is lower in relative viability: 0.705 for the first, 0.624 for the second.

Going from COR-L 105 to IA-LM, the relative viability falls from 0.954 to 0.723.

First: LOU-NH91
Second: NCI-H2170
The relative viability of the first is lower: 0.631 for the first, 0.846 for the second.

Compared with NCI-H2405, HOP-62 is higher in relative viability: 0.384 for the first, 0.844 for the second.

Going from HCC-44 to A549, the relative viability falls from 0.901 to 0.79.

First: LU99A
Second: HCC-78
The relative viability of the first is higher: 0.478 for the first, 0.411 for the second.

First: NCI-H1299
Second: NCI-H1563
The relative viability of the first is higher: 0.978 for the first, 0.886 for the second.

For ABC-1, the relative viability was 1.26.

same assay, conditions: first compound 8 µM

Compared with NCI-H727, EBC-1 is lower in relative viability: 0.694 for the first, 0.66 for the second.

Going from NCI-H1703 to NCI-H1993, the relative viability rises from 0.369 to 0.608.

Compared with SK-LU-1, NCI-H838 is higher in relative viability: 0.741 for the first, 1.01 for the second.

Compared with LCLC-103H, NCI-H520 is higher in relative viability: 0.957 for the first, 0.99 for the second.

First: NCI-H2126
Second: EMC-BAC-2
The relative viability of the first is lower: 0.822 for the first, 0.831 for the second.

Going from NCI-H2085 to Calu-6, the relative viability falls from 1.01 to 0.962.

First: HCC-366
Second: NCI-H1666
The relative viability of the first is lower: 0.385 for the first, 1.05 for the second.

Going from NCI-H596 to LK-2, the relative viability rises from 0.52 to 1.16.

First: NCI-H2087
Second: SK-MES-1
The relative viability of the first is higher: 0.997 for the first, 0.964 for the second.

Going from H3255 to COR-L23, the relative viability falls from 0.813 to 0.598.

Compared with COR-L 105, IA-LM is higher in relative viability: 0.954 for the first, 1 for the second.

Compared with LOU-NH91, NCI-H2170 is higher in relative viability: 0.742 for the first, 0.918 for the second.

First: NCI-H2405
Second: HOP-62
The relative viability of the first is lower: 0.508 for the first, 1.04 for the second.
